Measured values reported in US8143262B2, “7-(3′,4′-Dialkoxyphenyl)[1,2,4]-triazolo[1,5-A]pyrimidine compounds, process for preparing thereof, and pharmaceutical composition for treating or preventing asthma, chronic obstructive pulmonary disease, arthritis, atopic dermatitis, tumor and degenerative brain diseases comprising the same” (Korea Research Institute of Chemical Technology, priority 2007, dated 2012).
pIC50: −log10 of the molar value.

Tests used:
[1] = tested on: OVA-sensitized C57BL/6J mice; assay: Airway hyper-responsiveness (Penh, whole body plethysmography) after methacholine in OVA-sensitized mice; format: in vivo, mouse; details: oral, 100 mg/kg; versus Roflumilast 100 mg/kg oral
Procedure: (§1) For animal test in vivo, 8-9 week old male C57BL/6J mice having body weight of 20-25 g were used as the test animal. For sensitization and challenge of airway and lung by ovalbumin (OVA), OVA mixed with Al(OH)3 was administered intraperitoneally to cause first sensitization, and second sensitization after 10 days from the first sensitization. After 6 days from the second sensitization, the animals were inhaled with 5% OVA via nebulizer for 3 days. Administration of medicine to the sensitized mice was carried out intraorally (po), three times one hour before every inhalation of OVA. To the control group, 0.5% CMC was administered.
The analysis of airway hyper-responsiveness (AHR) was carried out by using a whole body plethysmographer with a living animal.
After 48 hours from inhalation of OVA, the animal was inhaled with methacholine (Mch) by means of nebulizer. Responsiveness of airway due to Mch was evaluated by enhanced pause (Penh) value on capability of respiration through airway by means of whole body plethysmography, and compared with control medicine.

[2] = target: T1, Human PDE-4d (Homo sapiens, UniProt Q08499); assay: Inhibition of PDE-4 activity ([3H]cAMP hydrolysis, recombinant catalytic domain); format: biochemical; details: for pIC50: PDE4d 1 nM, cAMP 250 nM, 34° C., 45 minutes, read-out: IC50 against PDE-4 enzyme; for activity on inhibiting PDE-4 (in words): comment on Table 2
T1 construct: The catalytic domain of PDE4d was cloned to pGEX4T3 (APBiotech) as GST fusion expression vector; GST (N); made in house; host or cells: E. coli BL21, DE3
Procedure: Experiment of inhibiting PDE-4 activity was carried out by modifying the method of Loughney (Loughney et al., Journal of Biological Chemistry, 1996, 271(2), 796-806). Human PDE-4d prepared by means of gene recombination technology was used as PDE-4d
The catalytic domain of PDE4d was cloned to pGEX4T3 (APBiotech) as GST fusion expression vector, and then PDE4d gene was transformed to E. coli BL21, DE3. The strain was cultured at 37° C. in LB medium, and when OD reached about 0.3˜0.5, the temperature was lowered to 18° C. to induce expression of PDE4d by using 0.5 mM IPTG. After 15 hours from induction of the expression, cells with PDE4d expressed were recovered. The cells were suspended in a buffer solution (50 mM Tris, pH 8.0, 0.4M NaCl, 5 mM DTT), and crushed, centrifuged and purified. The columns used for the purification were Q-cephalose (APBiotech), Glutanione-cephalose (APBiotech) and Superdex200 gel permeation chromatography (APBiotech), in this order.
In order to measure the ability of individual compound to inhibit PDE4d activity, PDE4d 1 nM and cAMP (Sigma) 250 nM as substrate were added to the reaction buffer (50 mM Tris-HCl (pH 7.5) and 4 mM MgCl2), and individual compound obtained from Example 1 was added in a concentration from 1 to 50 μM thereto, and the mixture was reacted at 34° C. for 45 minutes. Total reaction solution was 60 μl. As to cAMP, a mixture with the ratio of [^3H]cAMP (Amersham, 1 μCi/μl) to cAMP (hot:cold, that is, isotope:non-isotope) being 1:200 was used. Then, the reaction was quenched by heating at 95° C. for 2 minutes. After cooling the mixture for 3 minutes, 1 mg/ml of Snake Venome (Sigma V0376) (30 μl) was added thereto. After reacting at 34° C. for 30 minutes, 30 μl of the reaction mixture was added to 250 μl of DOWEX 1×2-100 ion exchange resin (Aldrich, previously mixed with distilled water in a ratio of 1:1.6) by portions, and the mixture was vigorously stirred for 2 minutes. After settling the resin down, the supernatant (130 μl) was added to 2 ml of scintillation cocktail (Packard), and the mixture was thoroughly mixed, and then measured by using beta-counter. With respect to the enzyme activity of control group (experiment carried out without adding compound of Chemical Formula (1)), the concentration of each test compound to inhibit 50% of enzyme activity was determined as IC50.

[3] = tested on: OVA-sensitized C57BL/6J mice; assay: Eosinophil peroxidase activity (EPO activity) in bronchoalveolar washing of OVA-sensitized mice; format: in vivo, mouse; details: oral, 5, 50, 100 and 300 mg/kg
Procedure: as §1
In order to observe cell activity and cell constitution in the washing solution of mouse bronchus alveolus, the animal was inhaled with OVA. After 62 hours, the mouse was anesthetized and the cervicothoracic region was open. A tube containing 0.8 ml of PBS was inserted to the bronchus, and PBS was injected. After massaging the chest for about 30 seconds, cell suspension was obtained from the lung. The cells obtained were centrifuged with 400×g. […] For the measurement of EPO activity, the cell suspension ([…]) was reacted with 0.1 mM OPD, 0.05 M Tris-HCl (pH 8.0), Triton X-100 and 1 mM H2 O2, and then absorbance at 492 nm was measured.

[4] = tested on: ferrets; assay: Test of side-effect related to emesis in ferrets; format: in vivo; details: ferret, 7 mg/kg
Procedure: Male ferrets having the body weight of about 1.5˜2 kg, purchased from Marshal, were classified into the groups: control, yohimbine, #102-500 mg/kg and #102-1000 mg/kg treated groups. For three animals in each group, the medicine dissolved in 0.5% CMC at a concentration of 500 and 1000 mg/kg was orally administered. During 3 hours after then, the number of vomiting for each animal, and the number of animals showing salivation and diarrhea were measured by visual observation.

[5] = tested on: PDE-4; details: background art; read-out: IC50 of inhibiting PDE-4; cited from earlier work

T1 sequence (Q08499 386-715 limits assumed): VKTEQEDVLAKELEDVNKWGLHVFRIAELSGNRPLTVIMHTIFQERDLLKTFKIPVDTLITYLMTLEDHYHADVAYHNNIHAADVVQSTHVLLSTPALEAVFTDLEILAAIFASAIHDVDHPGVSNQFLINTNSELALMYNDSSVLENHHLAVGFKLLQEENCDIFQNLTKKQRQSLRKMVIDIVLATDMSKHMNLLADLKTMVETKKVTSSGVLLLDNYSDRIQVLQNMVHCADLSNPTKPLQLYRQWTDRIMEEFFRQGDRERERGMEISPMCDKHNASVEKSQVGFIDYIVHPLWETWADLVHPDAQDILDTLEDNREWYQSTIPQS

pIC50 [2]	Structure (SMILES)	further results
7.13	[O-][n+]1cccc(-c2nc3nccc(-c4ccc(OC(F)F)c(OCC5CC5)c4)n3n2)c1 [Compound 102, 3-[7-{3-(cyclopropylmethoxy)-4-(difluoromethoxy)phenyl}-[1,2,4]triazolo[1,5-a]pyrimidine-2-yl]-pyridine-N-oxide]	effect of treating asthma: degree of airway contraction by enhanced pause (Penh) value [1]: far superior effect of treating asthma to the control compound, Roflumilast; eosinophil peroxidase activity (EPO activity) [3]: excellent effect
–	COC(=O)[C@@H]1[C@H]2C[C@H]3c4[nH]c5ccccc5c4CCN3C[C@@H]2CC[C@@H]1O [yohimbine]	animals showing salivation and diarrhea [4]: 66%; vomiting symptoms (number of vomiting per animal) ([4]; observed in all ferrets used): average twice
7.22	Cc1ccc(-c2nc3nccc(-c4ccc(OC(F)F)c(OCC5CC5)c4)n3n2)c(C)c1 [Compound 136, 7-[3-(Cyclopropylmethoxy)-4-(difluoromethoxy)phenyl]-2-(2,4-dimethylphenyl)-[1,2,4]triazolo[1,5-a]pyrimidine]	–
6.74	COC(=O)c1ccc(-c2nc3nccc(-c4ccc(OC(F)F)c(OCC5CC5)c4)n3n2)cn1 [Compound 138, 5-[7-{3-(cyclopropylmethoxy)-4-(difluoromethoxy)phenyl}-[1,2,4]triazolo[1,5-a]pyrimidin-2-yl]pyridine-2-carboxylic acid methyl ester]	–
7.52	Cc1cccc(-c2nc3nccc(-c4ccc(OC(F)F)c(OCC5CC5)c4)n3n2)c1 [Compound 132, 7-[3-(Cyclopropylmethoxy)-4-(difluromethoxy)phenyl]-2-m-tolyl-[1,2,4]triazolo[1,5-a]pyrimidine]	–
7.70	O=C(O)c1cccc(-c2nc3nccc(-c4ccc(OC(F)F)c(OCC5CC5)c4)n3n2)c1 [Compound 131, 3-[7-{3-(Cyclopropylmethoxy)-4-(difluoromethoxy)phenyl}-[1,2,4]triazolo[1,5-a]pyrimidin-2-yl]benzoic acid]	activity on inhibiting PDE-4 (in words) [2]: excellent activity on inhibiting PDE-4
7.48	FC(F)Oc1ccc(-c2ccnc3nc(-c4cccnc4)nn23)cc1OCC1CC1 [Compound 112, 3-[7-{3-(cyclopropylmethoxy)-4-(difluoromethoxy)phenyl}-[1,2,4]triazolo[1,5-a]pyrimidin-2-yl]-pyridinium chloride]	–
7.40	FC(F)Oc1ccc(-c2ccnc3nc(-c4cccc(Cl)c4)nn23)cc1OCC1CC1 [Compound 120, 2-(3-Chlorophenyl)-7-[3-(cyclopropylmethoxy)-4-(difluoromethoxy)phenyl]-[1,2,4]triazolo[1,5-a]pyrimidine]	–
8.00	N#Cc1cccc(-c2nc3nccc(-c4ccc(OC(F)F)c(OCC5CC5)c4)n3n2)c1 [Compound 115, 2-(3-Cyanophenyl)-7-[3-(cyclopropylmethoxy)-4-(difluoromethoxy)phenyl]-[1,2,4]triazolo[1,5-a]pyrimidine]	activity on inhibiting PDE-4 (in words) [2]: excellent activity on inhibiting PDE-4
–	O=C(Nc1c(Cl)cncc1Cl)c1ccc(OC(F)F)c(OCC2CC2)c1 [Roflumilast]	pIC50 [5]: 9.10
6.80	[O-][n+]1cccc(-c2nc3nccc(-c4ccc(OC(F)F)c(OCC5CC5)c4)n3n2)c1Cl [Compound 109, 3-[7-{3-(Cyclopropylmethoxy)-4-(difluoromethoxy)phenyl}-[1,2,4]triazolo[1,5-a]pyrimidine-2-yl]-2-Chloropyridine-N-oxide]	–
6.70	O=C(O)c1ccc(-c2nc3nccc(-c4ccc(OC(F)F)c(OCC5CC5)c4)n3n2)cn1 [Compound 137, 5-[7-{3-(cyclopropylmethoxy)-4-(difluoromethoxy)phenyl}-[1,2,4]triazolo[1,5-a]pyrimidin-2-yl]pyridine-2-carboxylic acid]	–
6.72	N#Cc1ncccc1-c1nc2nccc(-c3ccc(OC(F)F)c(OCC4CC4)c3)n2n1 [Compound 124, 2-(6-cyano-pyridin-5-yl)-7-[3-(cyclopropylmethoxy)-4-(difluoromethoxy)phenyl]-[1,2,4]triazolo[1,5-a]pyrimidine]	–

Structure (SMILES)	pIC50 [2]	further results
COc1ccc(-c2ccnc3nc(-c4cccc(C#N)c4)nn23)cc1OC1CCCC1 [Compound 129, 7-[3-(Cyclopentoxy)-4-methoxyphenyl]-2-(3-cyanophenyl)-[1,2,4]triazolo[1,5-a]pyrimidine]	7.89	–
